In brackets after ≈: the same amount, converted by molar mass.
Key:
S. aureus NCTC 4163 = experiment: MIC, twofold microdilution, standard strain; assay type: cell-based; conditions: Staphylococcus aureus, NCTC4163, 18 h
S. aureus ATCC 25923 = experiment: MIC, twofold microdilution, standard strain; assay type: cell-based; conditions: Staphylococcus aureus, ATCC25923, 18 h
S. aureus ATCC 6538 = experiment: MIC, twofold microdilution, standard strain; assay type: cell-based, Staphylococcus aureus; conditions: Staphylococcus aureus, ATCC6538; standard strain, 18 h
S. aureus ATCC 29213 = experiment: MIC, twofold microdilution, standard strain; assay type: cell-based; conditions: Staphylococcus aureus, ATCC29213, 18 h
[1] = test system: S. epidermidis ATCC 12228; experiment: MIC, twofold microdilution, standard strain; assay type: cell-based; conditions: Staphylococcus epidermidis, ATCC12228, 18 h
[2] = test system: S. epidermidis ATCC 35984; experiment: MIC, twofold microdilution, standard strain; assay type: cell-based; conditions: Staphylococcus epidermidis, ATCC35984, 18 h
P. aeruginosa ATCC 15442 = experiment: MIC, twofold microdilution, standard strain; assay type: cell-based, Pseudomonas aeruginosa; conditions: Pseudomonas aeruginosa, ATCC15442; standard strain, 18 h
E. coli ATCC 25922 = experiment: MIC, twofold microdilution, standard strain; assay type: cell-based, Escherichia coli; conditions: Escherichia coli, ATCC25922; standard strain, 18 h
S. aureus 180 = experiment: MIC, twofold microdilution, clinical strain; assay type: cell-based; conditions: Staphylococcus aureus, 18 h
S. aureus 5595 = experiment: MIC, twofold microdilution, clinical strain; assay type: cell-based; conditions: Staphylococcus aureus, 18 h
S. aureus T5595 = experiment: MIC, twofold microdilution, clinical strain; assay type: cell-based, Staphylococcus aureus; conditions: Staphylococcus aureus, T5595, 18 h
S. aureus T5591 = experiment: MIC, twofold microdilution, clinical strain; assay type: cell-based, Staphylococcus aureus; conditions: Staphylococcus aureus, T5591, 18 h
S. epidermidis 4341 = experiment: MIC, twofold microdilution, clinical strain; assay type: cell-based; conditions: Staphylococcus epidermidis, 18 h
S. epidermidis 5253 = experiment: MIC, twofold microdilution, clinical strain; assay type: cell-based, Staphylococcus epidermidis; conditions: Staphylococcus epidermidis, 5253, 18 h
S. epidermidis KR4243/1 = experiment: MIC, twofold microdilution, clinical strain; assay type: cell-based; conditions: Staphylococcus epidermidis, 18 h
S. pasteuri KR 4358 = experiment: MIC, twofold microdilution, clinical strain; assay type: cell-based; conditions: Staphylococcus pasteuri, KR4358, 18 h
P. aeruginosa 37 = experiment: MIC, twofold microdilution, clinical strain; assay type: cell-based; conditions: Pseudomonas aeruginosa, 18 h
P. aeruginosa 659 = experiment: MIC, twofold microdilution, clinical strain; assay type: cell-based; conditions: Pseudomonas aeruginosa, 18 h
E. coli 951 = experiment: MIC, twofold microdilution, clinical strain; assay type: cell-based; conditions: Escherichia coli, 18 h
E. coli 520 = experiment: MIC, twofold microdilution, clinical strain; assay type: cell-based; conditions: Escherichia coli, 18 h
E. coli 600 = experiment: MIC, twofold microdilution, clinical strain; assay type: cell-based, Escherichia coli; conditions: Escherichia coli, 600, 18 h
E. cloacae 8 = experiment: MIC, twofold microdilution, clinical strain; assay type: cell-based, Escherichia cloacae; conditions: Enterobacter cloacae, 8; clinical strain, 18 h
K. pneumoniae 28 = experiment: MIC, twofold microdilution, clinical strain; assay type: cell-based; conditions: Klebsiella pneumoniae, 18 h
K. pneumoniae 510 = experiment: MIC, twofold microdilution, clinical strain; assay type: cell-based, Klebsiella pneumoniae; conditions: Klebsiella pneumoniae, 510; clinical strain, 18 h
M. tuberculosis H37Rv = experiment: Tuberculostatic activity, Microplate Alamar Blue Assay (MIC); assay type: cell-based, Mycobacterium tuberculosis; conditions: Mycobacterium tuberculosis, H37RV; MABA; read-out: MIC M. tuberculosis H37Rv
[3] = test system: M. tuberculosis Spec. 192; experiment: as above; assay type: cell-based; conditions: Mycobacterium tuberculosis, MABA, read-out: MIC M. tuberculosis Spec. 192 (sensitive to tuberculostatics)
PC3 cells = experiment: MTT assay, cytotoxic activity; assay type: cell-based, human; conditions: Homo sapiens, PC-3, 72 h, MTT, 72 h
Procedure: Metastatic prostate cancer (PC3) and human immortal keratinocyte (HaCaT) cell lines were purchased from the American Type Culture Collection (ATCC, Rockville, MD, USA) and cultured in MEM (minimal essential medium, Thermo Sci, USA), RPMI 1640 (Roswell Park Memorial Institute, Biowest SAS, France), and DMEM (Dulbecco’s Modified Eagle’s Medium, Biowest SAS, France). Cells were seeded in 6 mL medium in a tissue culture flask (50 mL) in a 37 °C/5% CO2 humidified incubator. […] MTT analysis was performed according to a previous study.[59] Untreated cells were used as controls. Cell absorbance results were inserted into the formula for the relative MTT level (%). It allows to calculate the viability of cells under the influence of the tested compounds. Cell viability was expressed as the percentage of MTT reduction in cells treated with tested compounds compared to the control sample. The relative MTT level was calculated using the formula [100%] = A/B × 100% where A—the test sample absorbance and B—the control sample absorbance.

[4] = MTT assay, cytotoxic activity; assay type: cell-based; conditions: human, HaCaT cells (immortal keratinocytes); MTT, 72 h, normal cell line; read-out: IC50 HaCaT
Procedure: Cells were seeded in 6 mL medium in a tissue culture flask (50 mL) in a 37 °C/5% CO2 humidified incubator. […] MTT analysis was performed according to a previous study.[59] Untreated cells were used as controls. Cell absorbance results were inserted into the formula for the relative MTT level (%). It allows to calculate the viability of cells under the influence of the tested compounds. Cell viability was expressed as the percentage of MTT reduction in cells treated with tested compounds compared to the control sample. The relative MTT level was calculated using the formula [100%] = A/B × 100% where A—the test sample absorbance and B—the control sample absorbance.

[5] = test system: Staphylococci (standard strains); experiment: MIC, standard Gram-positive strains as a panel; assay type: cell-based, S. aureus, S. epidermidis; conditions: standard Gram-positive strains of Table 1; read-out: MIC toward standard Staphylococci (range over strains)
[6] = test system: clinical bacterial strains; experiment: MIC, clinical isolates as groups of strains; assay type: cell-based

SMILES | MIC (S. aureus NCTC 4163) [µg/mL] | MIC (S. aureus ATCC 25923) [µg/mL] | MIC (S. aureus ATCC 6538) [µg/mL] | MIC (S. aureus ATCC 29213) [µg/mL] | MIC [1] [µg/mL] | MIC [2] [µg/mL] | MIC (P. aeruginosa ATCC 15442) [µg/mL] | MIC (E. coli ATCC 25922) [µg/mL] | MIC (S. aureus 180) [µg/mL] | MIC (S. aureus 5595) [µg/mL] | MIC (S. aureus T5595) [µg/mL] | MIC (S. aureus T5591) [µg/mL] | MIC (S. epidermidis 4341) [µg/mL] | MIC (S. epidermidis 5253) [µg/mL] | MIC (S. epidermidis KR4243/1) [µg/mL] | MIC (S. pasteuri KR 4358) [µg/mL] | MIC (P. aeruginosa 37) [µg/mL] | MIC (P. aeruginosa 659) [µg/mL] | MIC (E. coli 951) [µg/mL] | MIC (E. coli 520) [µg/mL] | other results
O=C(O)c1cn(C2CC2)c2cc(N3CCN(C(=O)CCCC(F)(F)F)CC3)c(F)cc2c1=O [Compound 16, 7-[4-(5,5,5-Trifluoropentanoyl)-piperazin-1-yl]-1-cyclopropyl-6-fluoro-4-oxo-1,4-dihydro-quinoline-3-carboxylic Acid] | 0.2 (≈ 0.426 µM) | 0.2 (≈ 0.426 µM) | 0.2 (≈ 0.426 µM) | 0.2 (≈ 0.426 µM) | 0.2 (≈ 0.426 µM) | 0.2 (≈ 0.426 µM) | 1 (≈ 2.13 µM) | 1.6 (≈ 3.41 µM) | 1 (≈ 2.13 µM) | 1 (≈ 2.13 µM) | 0.4 (≈ 0.852 µM) | 0.4 (≈ 0.852 µM) | 25.6 (≈ 54.5 µM) | > 25.6 | 0.4 (≈ 0.852 µM) | 0.4 (≈ 0.852 µM) | > 25.6 | > 25.6 | > 25.6 | 3.2 (≈ 6.82 µM) | MIC (E. coli 600): 6.4 µg/mL (≈ 13.6 µM); MIC (E. cloacae 8): 8 µg/mL (≈ 17 µM); MIC (K. pneumoniae 28): > 25.6 µg/mL; MIC (K. pneumoniae 510): > 25.6 µg/mL; MIC (M. tuberculosis H37Rv): 64 µg/mL (≈ 136 µM); MIC [3]: 64 µg/mL (≈ 136 µM); IC50 (PC3 cells): 68.8 ± 9.9 µM; IC50 at 72 h [4]: > 100 µM; MIC [5]: 0.2 µg/mL (≈ 0.426 µM); share of the reference (CP) activity ([6]; S. aureus T5595 and T5591): 62.5%
O=C(O)c1cn(C2CC2)c2cc(N3CCN(C(=O)CCCCCBr)CC3)c(F)cc2c1=O [Compound 12, 7-[4-(6-Bromohexanoyl)-piperazin-1-yl]-1-cyclopropyl-6-fluoro-4-oxo-1,4-dihydro-quinoline-3-carboxylic Acid] | 0.8 (≈ 1.57 µM) | 1.6 (≈ 3.15 µM) | 1.6 (≈ 3.15 µM) | 1.6 (≈ 3.15 µM) | 1.6 (≈ 3.15 µM) | 0.8 (≈ 1.57 µM) | 25.6 (≈ 50.4 µM) | 1.6 (≈ 3.15 µM) | 0.5 (≈ 0.984 µM) | 0.5 (≈ 0.984 µM) | 0.8 (≈ 1.57 µM) | 0.8 (≈ 1.57 µM) | 64 (≈ 126 µM) | > 25.6 | 0.8 (≈ 1.57 µM) | 0.8 (≈ 1.57 µM) | > 25.6 | > 25.6 | > 25.6 | 0.8 (≈ 1.57 µM) | MIC (E. coli 600): 0.4 µg/mL (≈ 0.787 µM); MIC (E. cloacae 8): > 25.6 µg/mL; MIC (K. pneumoniae 28): > 25.6 µg/mL; MIC (K. pneumoniae 510): > 25.6 µg/mL; MIC (M. tuberculosis H37Rv): 1 µg/mL (≈ 1.97 µM); MIC [3]: 1 µg/mL (≈ 1.97 µM); IC50 (PC3 cells): 29.7 ± 5 µM; IC50 at 72 h [4]: > 100 µM; MIC [5]: 0.8 to 1.6 µg/mL (≈ 1.57 to 3.15 µM); MIC ([6]; clinical strains, read-out: MIC against selected E. coli and E. cloacae strains): 0.1 to 0.8 µg/mL (≈ 0.197 to 1.57 µM)

— paper PMC10233829 (ACS Omega, 2023)
